The record followed here is patent US20240115745A1, “COMPOUNDS COMPRISING A FIBROBLAST ACTIVATION PROTEIN LIGAND AND USE THEREOF” (3B PHARMACEUTICALS GMBH, priority 2021, published 2024).

SMILES strings stand for the structures. Read-outs that look alike come from different tables or passages of the source. *1 amine or outer side, *2 acyl side, *3 side chain or, on linkers, in order; H or OH if unused. Where a SMILES comes first, the peptide text is derived from it. Bridges are numbered along the chain shown (N, C = ends). [ ]: non-standard residue; d: D form. The star is where a group is joined. X4 = O=C(O)CN1CCN(CC(=O)O)CCN(CC(=O)NCCCOCCOCCOCCCN*)CCN(CC(=O)O)CC1; DOTA = O=C(O)CN1CCN(CC(=O)O)CCN(CC(=O)*)CCN(CC(=O)O)CC1; Suc = O=C(CCC(=O)[*:2])[*:1]; β3hK = NCCCC[C@H](N)CC(=O)O; 4Amb = NCc1ccc(C(=O)O)cc1; Nle = CCCC[C@H](N)C(=O)O; Hexanoyl = CCCCCC(=O)*; CO = O=C([*:1])[*:2]; NHBu = CCCCN* Where only a bound is given, the exact number is not on record here.

The target of experiment [1] is T1, FAP-expressing human WI-38 fibroblasts (Homo sapiens, UniProt Q12884).
T1 construct: FAP-expressing human WI-38 fibroblasts (ECACC) were cultured in EMEM; host or cells: WI-38 human fibroblasts
T1 sequence (Q12884 whole entry): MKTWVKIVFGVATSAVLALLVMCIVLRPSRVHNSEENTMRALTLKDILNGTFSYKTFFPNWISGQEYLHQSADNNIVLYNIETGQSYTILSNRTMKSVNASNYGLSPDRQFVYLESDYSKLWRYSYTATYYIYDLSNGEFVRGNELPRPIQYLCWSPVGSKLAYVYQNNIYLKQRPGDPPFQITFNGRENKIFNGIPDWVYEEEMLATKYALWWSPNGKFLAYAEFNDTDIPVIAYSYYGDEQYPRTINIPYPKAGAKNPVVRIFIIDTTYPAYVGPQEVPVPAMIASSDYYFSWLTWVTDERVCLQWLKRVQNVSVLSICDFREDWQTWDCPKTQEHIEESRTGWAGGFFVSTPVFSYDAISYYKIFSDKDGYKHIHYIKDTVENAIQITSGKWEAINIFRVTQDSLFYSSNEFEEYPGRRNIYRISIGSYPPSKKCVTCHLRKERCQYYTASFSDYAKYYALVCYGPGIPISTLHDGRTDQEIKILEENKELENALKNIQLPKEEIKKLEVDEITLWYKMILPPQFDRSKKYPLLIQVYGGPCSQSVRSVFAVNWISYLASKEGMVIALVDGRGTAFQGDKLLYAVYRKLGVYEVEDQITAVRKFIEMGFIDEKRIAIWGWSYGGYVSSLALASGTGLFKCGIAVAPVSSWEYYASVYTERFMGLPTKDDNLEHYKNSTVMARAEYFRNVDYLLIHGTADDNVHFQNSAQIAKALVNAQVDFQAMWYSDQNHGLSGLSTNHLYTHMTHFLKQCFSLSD
Kind of experiment: Competitive FACS binding assay.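 Note: flow cytometry read-out of median Cy5 fluorescence on the cells, plotted versus test compound concentration, with IC50 derived by four-parameter logistic curve fitting.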

The target of experiment [2] is T2, Recombinant human FAP (Homo sapiens, UniProt Q12884).
T2 construct: purchased R&D systems 3715-SE
T2 sequence (Q12884 26-760 limits assumed): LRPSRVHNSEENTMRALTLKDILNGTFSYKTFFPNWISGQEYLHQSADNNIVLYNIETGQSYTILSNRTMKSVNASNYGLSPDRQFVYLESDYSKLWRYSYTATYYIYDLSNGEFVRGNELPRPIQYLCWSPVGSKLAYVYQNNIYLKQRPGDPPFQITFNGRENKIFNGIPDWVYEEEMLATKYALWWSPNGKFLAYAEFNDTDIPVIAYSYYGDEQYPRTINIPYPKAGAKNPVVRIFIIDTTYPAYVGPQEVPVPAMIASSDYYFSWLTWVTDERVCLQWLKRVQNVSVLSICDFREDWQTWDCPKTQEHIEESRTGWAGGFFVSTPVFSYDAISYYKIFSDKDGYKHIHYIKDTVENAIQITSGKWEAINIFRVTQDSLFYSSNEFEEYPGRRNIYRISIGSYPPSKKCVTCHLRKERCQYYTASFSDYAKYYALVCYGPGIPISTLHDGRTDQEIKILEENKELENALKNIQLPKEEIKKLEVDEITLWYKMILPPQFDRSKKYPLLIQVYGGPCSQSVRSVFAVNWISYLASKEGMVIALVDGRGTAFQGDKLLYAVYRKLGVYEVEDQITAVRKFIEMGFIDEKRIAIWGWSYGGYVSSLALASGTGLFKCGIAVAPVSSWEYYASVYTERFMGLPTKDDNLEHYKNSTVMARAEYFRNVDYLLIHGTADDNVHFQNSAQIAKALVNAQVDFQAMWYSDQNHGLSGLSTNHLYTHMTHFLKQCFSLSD
Kind of experiment: FRET-based FAP protease activity assay. The class given is biochemical.

Where [3] appears, read: competition with 3 nM Cy5-labeled compound, WI-38 fibroblasts, 4° C., 1 hour, read-out: pIC50 Category (FACS) (converted).
The mark [4] stands for this setting: recombinant human FAP, FRET-peptide substrate, 37° C., read-out: pIC50 Category (Activity) (converted).

For the compound `CSCC[C@H](N)C(=O)N[C@H]1CSSC[C@@H](C(=O)N[C@@H](CC(=O)O)C(=O)N[C@@H](Cc2c[nH]cn2)C(=O)N[C@@H](Cc2ccccc2)C(=O)N[C@@H](CCCNC(=N)N)C(=O)N[C@@H](CC(=O)O)C(N)=O)NC(=O)[C@H](Cc2ccccc2)NC(=O)[C@H](CCC(=O)O)NC(=O)[C@H]([C@@H](C)O)NC(=O)[C@@H]2CCCN2C(=O)[C@@H]2CCCN2C1=O` [Compound 1001, H-Met-[Cys-Pro-Pro-Thr-Glu-Phe-Cys]-Asp-His-Phe-Arg-Asp-NH2] (HELM PEPTIDE1{M.C.P.P.T.E.F.C.D.H.F.R.D.[am]}$PEPTIDE1,PEPTIDE1,2:R3-8:R3$$$V2.0), the IC50 in experiment [1] (setting [3]) and in experiment [2] (setting [4]) was less than 100 nM in each case.

Take `CCCCCC(=O)N[C@H]1CSSC[C@@H](C(=O)N[C@@H](CC(=O)O)C(=O)N[C@@H](Cc2c[nH]cn2)C(=O)N[C@@H](Cc2ccccc2)C(=O)N[C@@H](CCCNC(=N)N)C(=O)N[C@@H](CC(=O)O)C(N)=O)NC(=O)[C@H](Cc2ccccc2)NC(=O)[C@H](CCC(=O)O)NC(=O)[C@H]([C@@H](C)O)NC(=O)[C@@H]2CCCN2C(=O)[C@@H]2CCCN2C1=O` [Compound 1002, Hex-[Cys-Pro-Pro-Thr-Glu-Phe-Cys]-Asp-His-Phe-Arg-Asp-NH2] (HELM PEPTIDE1{[CCCCCC(=O)[*:2]].C.P.P.T.E.F.C.D.H.F.R.D.[am]}$PEPTIDE1,PEPTIDE1,2:R3-8:R3$$$V2.0): the IC50 in experiment [1] (setting [3]) and in experiment [2] (setting [4]) was less than 100 nM each time.

`CCCC[C@H](NC(=O)CCC(=O)NCCCOCCOCCOCCCNC(=O)CN1CCN(CC(=O)O)CCN(CC(=O)O)CCN(CC(=O)O)CC1)C(=O)N[C@H]1CSSC[C@@H](C(=O)N[C@@H](CC(=O)O)C(N)=O)NC(=O)[C@H](Cc2ccccc2)NC(=O)[C@H](CCC(=O)O)NC(=O)[C@H]([C@@H](C)O)NC(=O)[C@@H]2CCCN2C(=O)[C@@H]2CCCN2C1=O` [Compound 1003, DOTA-Ttds-Nle-[Cys-Pro-Pro-Thr-Glu-Phe-Cys]-Asp-NH2] ({X4-Suc}-[Nle]CPPTEFCD-NH2; disulfide 2-8): the IC50 in experiment [1] (setting [3]) and in experiment [2] (setting [4]) was less than 100 nM in each case.

In the case of `CCCC[C@H](NC(=O)CN1CCN(CC(=O)O)CCN(CC(=O)O)CCN(CC(=O)O)CC1)C(=O)N[C@H]1CSSC[C@@H](C(=O)N[C@@H](CC(=O)O)C(N)=O)NC(=O)[C@H](Cc2ccccc2)NC(=O)[C@H](CCC(=O)O)NC(=O)[C@H]([C@@H](C)O)NC(=O)[C@@H]2CCCN2C(=O)[C@@H]2CCCN2C1=O` [Compound 1004, DOTA-Nle-[Cys-Pro-Pro-Thr-Glu-Phe-Cys]-Asp-NHd2] (HELM PEPTIDE1{[O=C(O)CN1CCN(CC(=O)O)CCN(CC(=O)[*:2])CCN(CC(=O)O)CC1].[Nle].C.P.P.T.E.F.C.D.[am]}$PEPTIDE1,PEPTIDE1,3:R3-9:R3$$$V2.0), the IC50 in experiment [1] (setting [3]) and in experiment [2] (setting [4]) was less than 100 nM each time.

As to `CCCC[C@H](NC(=O)COCCOCCNC(=O)CN1CCN(CC(=O)O)CCN(CC(=O)O)CCN(CC(=O)O)CC1)C(=O)N[C@H]1CSSC[C@@H](C(=O)N[C@@H](CC(=O)O)C(=O)N[C@@H](Cc2c[nH]cn2)C(=O)N[C@@H](Cc2ccccc2)C(=O)N[C@@H](CCCNC(=N)N)C(=O)N[C@@H](CC(=O)O)C(N)=O)NC(=O)[C@H](Cc2ccccc2)NC(=O)[C@H](CCC(=O)O)NC(=O)[C@H]([C@@H](C)O)NC(=O)[C@@H]2CCCN2C(=O)[C@@H]2CCCN2C1=O` [Compound 1005, DOTA-O2Oc-Nle-[Cys-Pro-Pro-Thr-Glu-Phe-Cys]-Asp-His-Phe-Arg-Asp-NH2] (HELM PEPTIDE1{[O=C(O)CN1CCN(CC(=O)O)CCN(CC(=O)[*:2])CCN(CC(=O)O)CC1].[O=C(COCCOCCN[*:1])[*:2]].[Nle].C.P.P.T.E.F.C.D.H.F.R.D.[am]}$PEPTIDE1,PEPTIDE1,4:R3-10:R3$$$V2.0), the IC50 in experiment [1] (setting [3]) is less than 100 nM; in experiment [1] (read-out: pIC50 (highest activity categories, FACS binding) (converted)), less than 100 nM; in experiment [2] (read-out: pIC50 (highest activity categories, FAP activity) (converted)), less than 100 nM; in experiment [2] (setting [4]) it was less than 100 nM.

On to `CCCC[C@H](NC(=O)CCC(=O)NCCCOCCOCCOCCCNC(=O)CN1CCN(CC(=O)O)CCN(CC(=O)O)CCN(CC(=O)O)CC1)C(=O)N[C@H]1CSSC[C@@H](C(=O)N[C@@H](CC(=O)O)C(=O)N[C@@H](Cc2c[nH]cn2)C(=O)N[C@@H](Cc2ccccc2)C(=O)N[C@@H](CCCNC(=N)N)C(=O)N[C@@H](CC(=O)O)C(N)=O)NC(=O)[C@H](Cc2ccccc2)NC(=O)[C@H](CCC(=O)O)NC(=O)[C@H]([C@@H](C)O)NC(=O)[C@@H]2CCCN2C(=O)[C@@H]2CCCN2C1=O` [Compound 1006, DOTA-Ttds-Nle-[Cys-Pro-Pro-Thr-Glu-Phe-Cys]-Asp-His-Phe-Arg-Asp-NH2] ({X4-Suc}-[Nle]CPPTEFCDHFRD-NH2; disulfide 2-8), for which the IC50 in experiment [1] (setting [3]) and in experiment [2] (setting [4]) was less than 100 nM in each case.

As to `CCCC[C@H](NC(=O)CCC(=O)NCCCOCCOCCOCCCNC(=O)CN1CCN(CC(=O)O)CCN(CC(=O)O)CCN(CC(=O)O)CC1)C(=O)N[C@H]1CSSC[C@@H](C(=O)N[C@@H](CC(=O)O)C(=O)NCc2ccc(C(=O)N[C@@H](CCCNC(=N)N)C(N)=O)cc2)NC(=O)[C@H](Cc2ccccc2)NC(=O)[C@H](CCC(=O)O)NC(=O)[C@H]([C@@H](C)O)NC(=O)[C@@H]2CCCN2C(=O)[C@@H]2CCCN2C1=O` [Compound 1007, DOTA-Ttds-Nle-[Cys-Pro-Pro-Thr-Glu-Phe-Cys]-Asp-Pamb-Arg-NH2] ({X4-Suc}-[Nle]CPPTEFCD[4Amb]R-NH2; disulfide 2-8), the IC50 in experiment [1] (setting [3]) and in experiment [2] (setting [4]) was less than 100 nM in each case.

With `CCCC[C@H](NC(=O)CCC(=O)NCCCOCCOCCOCCCNC(=O)CN1CCN(CC(=O)O)CCN(CC(=O)O)CCN(CC(=O)O)CC1)C(=O)N[C@H]1CSSC[C@@H](C(=O)N[C@@H](CC(=O)O)C(N)=O)NC(=O)[C@H](Cc2ccccc2)NC(=O)[C@H](CCC(N)=O)NC(=O)[C@H]([C@@H](C)O)NC(=O)[C@@H]2CCCN2C(=O)[C@@H]2CCCN2C1=O` [Compound 1008, DOTA-Ttds-Nle-[Cys-Pro-Pro-Thr-Gln-Phe-Cys]-Asp-NH2] ({X4-Suc}-[Nle]CPPTQFCD-NH2; disulfide 2-8), the IC50 in experiment [1] (setting [3]) and in experiment [2] (setting [4]) was less than 100 nM throughout.

Regarding `CCCC[C@H](NC(=O)CCC(=O)NCCCOCCOCCOCCCNC(=O)CN1CCN(CC(=O)O)CCN(CC(=O)O)CCN(CC(=O)O)CC1)C(=O)N[C@H]1CSSC[C@@H](C(=O)O)NC(=O)[C@H](Cc2ccccc2)NC(=O)[C@H](CCC(N)=O)NC(=O)[C@H]([C@@H](C)O)NC(=O)[C@@H]2CCCN2C(=O)[C@@H]2CCCN2C1=O` [Compound 1009, DOTA-Ttds-Nle-[Cys-Pro-Pro-Thr-Gln-Phe-Cys]-OH], the IC50 in experiment [1] (setting [3]) and in experiment [2] (setting [4]) was less than 100 nM throughout.

For the compound `CCCC[C@H](NC(=O)CCC(=O)NCCCOCCOCCOCCCNC(=O)CN1CCN(CC(=O)O)CCN(CC(=O)O)CCN(CC(=O)O)CC1)C(=O)N[C@H]1CSSC[C@@H](C(=O)NCCC(=O)O)NC(=O)[C@H](Cc2ccccc2)NC(=O)[C@H](CCC(N)=O)NC(=O)[C@H]([C@@H](C)O)NC(=O)[C@@H]2CCCN2C(=O)[C@@H]2CCCN2C1=O` [Compound 1010, DOTA-Ttds-Nle-[Cys-Pro-Pro-Thr-Gln-Phe-Cys]-Bal-OH], the IC50 in experiment [1] (setting [3]) and in experiment [2] (setting [4]) was less than 100 nM each time.

Turning to `CCCCCC(=O)N[C@H]1CSSC[C@@H](C(=O)N[C@@H](CCCCNC(=O)CN2CCN(CC(=O)O)CCN(CC(=O)O)CCN(CC(=O)O)CC2)CC(=O)O)NC(=O)[C@H](Cc2ccccc2)NC(=O)[C@H](CCC(N)=O)NC(=O)[C@H]([C@@H](C)O)NC(=O)[C@@H]2CCCN2C(=O)[C@@H]2CCCN2C1=O` [Compound 1011, Hex-[Cys-Pro-Pro-Thr-Gln-Phe-Cys]-Bhk(DOTA)-OH], the IC50 in experiment [1] (setting [3]) and in experiment [2] (setting [4]) was less than 100 nM throughout.

For `CCCCCC(=O)N[C@H]1CSSC[C@@H](C(=O)N[C@@H](CCCCNC(=O)CN2CCN(CC(=O)O)CCN(CC(=O)O)CCN(CC(=O)O)CC2)CC(=O)O)NC(=O)[C@H](Cc2ccccc2)NC(=O)[C@H](CCC(=O)O)NC(=O)[C@H]([C@@H](C)O)NC(=O)[C@@H]2CCCN2C(=O)[C@@H]2CCCN2C1=O` [Compound 1012, Hex-[Cys-Pro-Pro-Thr-Glu-Phe-Cys]-Bhk(DOTA)-OH] (Hexanoyl-CPPTEFC[β3hK](DOTA)-OH; disulfide 1-7), the IC50 in experiment [1] (setting [3]) and in experiment [2] (setting [4]) was less than 100 nM throughout.

Consider `CCCCCC(=O)N[C@H]1CSSC[C@@H](C(=O)N[C@@H](CC(=O)O)C(=O)N[C@@H](CCCCNC(=O)CN2CCN(CC(=O)O)CCN(CC(=O)O)CCN(CC(=O)O)CC2)C(N)=O)NC(=O)[C@H](Cc2ccccc2)NC(=O)[C@H](CCC(=O)O)NC(=O)[C@H]([C@@H](C)O)NC(=O)[C@@H]2CCCN2C(=O)[C@@H]2CCCN2C1=O` [Compound 1013, Hex-[Cys-Pro-Pro-Thr-Glu-Phe-Cys]-Asp-Lys(DOTA)-NH2] (Hexanoyl-CPPTEFCDK(DOTA)-NH2; disulfide 1-7), for which the IC50 in experiment [1] (setting [3]) and in experiment [2] (setting [4]) was less than 100 nM throughout.

For `CCCCNC(=O)N[C@H]1CSSC[C@@H](C(=O)N[C@@H](CCCCNC(=O)CN2CCN(CC(=O)O)CCN(CC(=O)O)CCN(CC(=O)O)CC2)CC(=O)O)NC(=O)[C@H](Cc2ccccc2)NC(=O)[C@H](CCC(=O)O)NC(=O)[C@H]([C@@H](C)O)NC(=O)[C@@H]2CCCN2C(=O)[C@@H]2CCCN2C1=O` [Compound 1014, Buur-[Cys-Pro-Pro-Thr-Glu-Phe-Cys]-Bhk(DOTA)-OH] ({NHBu-CO}-CPPTEFC[β3hK](DOTA)-OH; disulfide 1-7), the IC50 in experiment [1] (setting [3]) and in experiment [2] (setting [4]) was less than 100 nM throughout.

For `CCCCCC(=O)N[C@H]1CSSC[C@@H](C(=O)N[C@@H](CC(=O)O)C(=O)N[C@@H](CCCCNC(=O)CN2CCN(CC(=O)O)CCN(CC(=O)O)CCN(CC(=O)O)CC2)C(N)=O)NC(=O)[C@H](Cc2ccccc2)NC(=O)[C@H](CCC(N)=O)NC(=O)[C@H]([C@@H](C)O)NC(=O)[C@@H]2CCCN2C(=O)[C@@H]2CCCN2C1=O` [Compound 1016, Hex-[Cys-Pro-Pro-Thr-Gln-Phe-Cys]-Asp-Lys(DOTA)-NH2] (Hexanoyl-CPPTQFCDK(DOTA)-NH2; disulfide 1-7), the IC50 in experiment [1] (setting [3]) and in experiment [2] (setting [4]) was less than 100 nM each time.
